Laboratory results taken from US20140356325A1, “NOVEL 2'-C-METHYL NUCLEOSIDE DERIVATIVE COMPOUNDS” (Ligand Pharmaceuticals Incorporated, priority 2012, published 2014).
Counter-ions that a name gives are not always drawn.

Tests used:
[1] = tested on: purine salvage pathway enzymes such as adenosine deaminase and purine nucleoside phosphorylase; conditions: cited from earlier work
[2] = tested on: HCV replication in human liver tissue; test: HCV-infected human liver slice assay; format: cell-based
Description: Inhibition of HCV replication in human liver tissue is evaluated using the following assay. Procurement. Liver from a brain-dead HCV antibody-positive human patient is perfused with ice-cold Viaspan (Dupont Pharmaceutical) preservation solution and received on ice in Viaspan. Precision-cut liver slices of ˜200-250 μm thickness and […] are prepared and cultured in Waymouth's cell culture medium (Gibco, Inc.) that is supplemented with 10% fetal bovine serum and 10 mL/L Fungi-Bact at 37° C., and gassed with carbogen (95% O2, 5% CO2) at 0.75 liters/min. Tissue slices are maintained in culture for 72 h. Cell culture medium containing test compound in solution is changed on a daily basis. At appropriate times of liver slice incubation, liver slices and medium are collected for analysis of HCV RNA (tissue and medium) and nucleotide levels (NTP). All collected media and tissue slices are maintained in liquid N2 until analysis. Medium and tissue samples are analyzed for HCV RNA levels according to published procedures (Bonacini et. al., 1999) which utilize an automated, multicycle, polymerase chain reaction (PCR) based technique. This assay has a lower limit of detection for HCV RNA of 100 viral copies/ml.

SMILES	melting point	other results
C[C@@]1(O)[C@H](O)[C@@H](CO)O[C@H]1n1cnc2c(N)ncnc21 [2′-C-methyladenosine]	–	resistance to metabolism by purine salvage pathway enzymes [1]: increased resistance to metabolism
C[C@@]12OC(=O)O[C@@H]1[C@@H](CO[P@@]1(=O)OCC[C@@H](c3cccc(C#N)c3)O1)O[C@H]2n1cnc2c(O)nc(N)nc21 [Compound 109, 2(R)-(2-Amino-6-hydroxy-9 (H)-purinyl)-4(R)-(4(S)-(3-cyanophenyl)-2-oxo-1,3,2-dioxaphosphorinan-2(R)-yloxymethyl)-1(R)-methyl-7-oxo-3,6,8-trioxa-cis-bicyclo[3.3.0]octane]	218 to 220 °C	–
CCOc1nc(N)nc2c1ncn2[C@@H]1O[C@H](CO[P@@]2(=O)OCC[C@@H](c3cc(F)cc(F)c3)O2)[C@H]2OC(=O)O[C@]21C [Compound 126, 2(R)-(2-Amino-6-ethoxy-9(H)-purinyl)-4(R)-(4(S)-(3,5-difluorophenyl)-2-oxo-1,3,2-dioxaphosphorinan-2(R)-yloxymethyl)-1(R)-methyl-7-oxo-3,6,8-trioxa-cis-bicyclo[3.3.0]octane]	96 to 98 °C	–
C[C@@]1(O)[C@H](O)[C@@H](CO)O[C@H]1n1cnc2c(=O)[nH]c(N)nc21 [2′-C-methylguanosine]	–	HCV RNA levels present in the liver slice culture media ([2]; relative to control, untreated slices, following incubation): decreased; amount of HCV RNA released into the culture medium ([2]; treatment for 72 h, medium from 48-72 h): decreases
CCOc1nc(N)nc2c1ncn2[C@@H]1O[C@H](CO[P@]2(=O)OCC[C@H](c3cc(Cl)cc(Cl)c3)O2)[C@H]2OC(=O)O[C@]21C [Compound 128, 2(R)-(2-Amino-6-ethoxy-9(H)-purinyl)-4(R)-(4(R)-(3,5-dichlorophenyl)-2-oxo-1,3,2-dioxaphosphorinan-2(S)-yloxymethyl)-1(R)-methyl-7-oxo-3,6,8-trioxa-cis-bicyclo[3.3.0]octane]	101 to 103 °C	–
CCOc1nc(N)nc2c1ncn2[C@@H]1O[C@H](CO[P@@]2(=O)OCC[C@@H](c3cc(Cl)cc(Cl)c3)O2)[C@H]2OC(=O)O[C@]21C [Compound 127, 2(R)-(2-Amino-6-ethoxy-9(H)-purinyl)-4(R)-(4(S)-(3,5-dichlorophenyl)-2-oxo-1,3,2-dioxaphosphorinan-2(R)-yloxymethyl)-1(R)-methyl-7-oxo-3,6,8-trioxa-cis-bicyclo[3.3.0]octane]	101 to 103 °C	–
CCOc1nc(N)nc2c1ncn2[C@@H]1O[C@H](CO[P@@]2(=O)OCC[C@@H](c3cccc(Br)c3)O2)[C@H]2OC(=O)O[C@]21C [Compound 123, 2(R)-(2-Amino-6-ethoxy-9(H)-purinyl)-4(R)-(4(S)-(3-bromophenyl)-2-oxo-1,3,2-dioxaphosphorinan-2(R)-yloxymethyl)-1(R)-methyl-7-oxo-3,6,8-trioxa-cis-bicyclo[3.3.0]octane]	77 to 80 °C	–
CCOc1nc(N)nc2c1ncn2[C@@H]1O[C@H](CO[P@@]2(=O)OCC[C@@H](c3cccc(Cl)c3)O2)[C@H]2OC(=O)O[C@]21C [Compound 120, 2(R)-(2-Amino-6-ethoxy-9(H)-purinyl)-4(R)-(4(S)-(3-chlorophenyl)-2-oxo-1,3,2-dioxaphosphorinan-2(R)-yloxymethyl)-1(R)-methyl-7-oxo-3,6,8-trioxa-cis-bicyclo[3.3.0]octane]	82 to 84 °C	–

Continued, in another order:

melting point	SMILES	other results
72 to 75 °C	CCOC(COc1nc(N)nc2c1ncn2[C@@H]1O[C@H](CO[P@@]2(=O)OCC[C@@H](c3cccc(Cl)c3)O2)[C@H]2OC(=O)O[C@]21C)OCC [Compound 149, 2(R)-(2-Amino-6-(2,2-diethoxyethoxy)-9(H)-purinyl)-4(R)-(4(S)-(3-chlorophenyl)-2-oxo-1,3,2-dioxaphosphorinan-2(R)-yloxymethyl)-1(R)-methyl-7-oxo-3,6,8-trioxa-cis-bicyclo[3.3.0]octane]	–
88 to 91 °C	CC(C)(C)COc1nc(N)nc2c1ncn2[C@@H]1O[C@H](CO[P@@]2(=O)OCC[C@@H](c3cccc(Cl)c3)O2)[C@H]2OC(=O)O[C@]21C [Compound 147, 2(R)-(2-Amino-6-(2,2-dimethylpropyloxy)-9(H)-purinyl)-4(R)-(4(S)-(3-chlorophenyl)-2-oxo-1,3,2-dioxaphosphorinan-2(R)-yloxymethyl)-1(R)-methyl-7-oxo-3,6,8-trioxa-cis-bicyclo[3.3.0]octane]	–
76 to 78 °C	CC(C)CCOc1nc(N)nc2c1ncn2[C@@H]1O[C@H](CO[P@@]2(=O)OCC[C@@H](c3cccc(Cl)c3)O2)[C@H]2OC(=O)O[C@]21C [Compound 134, 2(R)-(2-Amino-6-(3-methylbutyloxy)-9(H)-purinyl)-4(R)-(4(S)-(3-chlorophenyl)-2-oxo-1,3,2-dioxaphosphorinan-2(R)-yloxymethyl)-1(R)-methyl-7-oxo-3,6,8-trioxa-cis-bicyclo[3.3.0]octane]	–
99 to 101 °C	C[C@@]12OC(=O)O[C@@H]1[C@@H](CO[P@@]1(=O)OCC[C@@H](c3cccc(Cl)c3)O1)O[C@H]2n1cnc2c(OCC3CC4CCC3C4)nc(N)nc21 (stereo partly drawn) [Compound 139, 2(R)-(2-Amino-6-(2-bicyclo[2.2.1]heptanylmethoxy)-9(H)-purinyl)-4(R)-(4(S)-(3-chlorophenyl)-2-oxo-1,3,2-dioxaphosphorinan-2(R)-yloxymethyl)-1(R)-methyl-7-oxo-3,6,8-trioxa-cis-bicyclo[3.3.0]octane]	–
106 to 110 °C	CC(C)Oc1nc(N)nc2c1ncn2[C@@H]1O[C@H](CO[P@@]2(=O)OCC[C@@H](c3cccc(Cl)c3)O2)[C@H]2OC(=O)O[C@]21C [Compound 151, 2(R)-(2-Amino-6-isopropyloxy-9(H)-purinyl)-4(R)-(4(S)-(3-chlorophenyl)-2-oxo-1,3,2-dioxaphosphorinan-2(R)-yloxymethyl)-1(R)-methyl-7-oxo-3,6,8-trioxa-cis-bicyclo[3.3.0]octane]	–
162 to 165 °C	CCOc1nc(N)nc2c1ncn2[C@@H]1O[C@H](CO[P@@]2(=O)OCC[C@@H](c3cccc(Cl)c3)O2)[C@@H](OC(=O)C(C)C)[C@@]1(C)O (as salt: trifluoroacetate) [Compound 185, 2(R)-(2-Amino-6-ethoxy-9(H)-purinyl)-5(R)-(4(S)-(3-chlorophenyl)-2-oxo-1,3,2-dioxaphosphorinan-2(R)-yloxymethyl)-3(R)-hydroxy-3(R)-methyl-4(R)-isobutyryloxy-tetrahydrofuran]	–
